Data taken from ChEMBL document CHEMBL1201862, “PubChem BioAssay data set” (2004).
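Each compound was tested at five concentrations against cells in 96-well plates for 48 hours. The concentration for 50% growth inhibition is given as GI50.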 Calls of active or inactive are those of the source. Cut-off read from the data, not from the text of the source: active = GI50 up to about 1.1 µM and inactive = higher.

Tests used:
Experiment in all cases: NCI-60 cell line screen, 48 h
HCC 2998 = system: HCC 2998
EKVX = system: EKVX
SF-295 = system: SF-295
SR = system: SR
CCRF-CEM = system: CCRF-CEM
RPMI-8226 = system: RPMI-8226
SK-MEL-5 = system: SK-MEL-5
UACC-257 = system: UACC-257
NCI-H522 = system: NCI-H522
TK-10 = system: TK-10
NCI-H460 = system: NCI-H460
786-0 = system: 786-0
SK-MEL-2 = system: SK-MEL-2
OVCAR-8 = system: OVCAR-8
LOX IMVI = system: LOX IMVI
M14 = system: M14
SW-620 = system: SW-620
SF-539 = system: SF-539
SNB-19 = system: SNB-19
NCI/ADR-RES = system: NCI/ADR-RES

SMILES	GI50 (HCC 2998)	GI50 (EKVX)	GI50 (SF-295)	GI50 (SR)	GI50 (CCRF-CEM)	GI50 (RPMI-8226)	GI50 (SK-MEL-5)	GI50 (UACC-257)	GI50 (NCI-H522)	GI50 (TK-10)	GI50 (NCI-H460)	GI50 (786-0)	GI50 (SK-MEL-2)	GI50 (OVCAR-8)	GI50 (LOX IMVI)	GI50 (M14)	GI50 (SW-620)	GI50 (SF-539)	GI50 (SNB-19)	GI50 (NCI/ADR-RES)
CCCCc1c2c(nc3c1CCC/C3=C\c1ccccc1)C(=O)CCC2	20.3 µM (inactive)	19.1 µM (inactive)	21.2 µM (inactive)	7.24 µM (inactive)	17.4 µM (inactive)	13.7 µM (inactive)	16.3 µM (inactive)	17 µM (inactive)	13.2 µM (inactive)	24.5 µM (inactive)	34.2 µM (inactive)	25.2 µM (inactive)	17.1 µM (inactive)	24.5 µM (inactive)	17.6 µM (inactive)	21.1 µM (inactive)	22 µM (inactive)	18.4 µM (inactive)	20.1 µM (inactive)	–
c1cncc(CSc2nc3ccccc3nc2-c2cccs2)c1	86.1 µM (inactive)	98.4 µM (inactive)	> 100 µM (inactive)	40.9 µM (inactive)	30.6 µM (inactive)	32.8 µM (inactive)	> 100 µM (inactive)	> 100 µM (inactive)	33.4 µM (inactive)	> 100 µM (inactive)	56 µM (inactive)	58.2 µM (inactive)	87.1 µM (inactive)	83.9 µM (inactive)	> 100 µM (inactive)	92.5 µM (inactive)	91.4 µM (inactive)	71.8 µM (inactive)	77.6 µM (inactive)	–
Cc1cc(O)nc(NN2C(Cl)C(=O)C2c2ccc(O)cc2)n1 (centres undefined)	11.2 µM (inactive)	13.6 µM (inactive)	9.48 µM (inactive)	3.08 µM (inactive)	2.81 µM (inactive)	2.22 µM (inactive)	8.49 µM (inactive)	13.1 µM (inactive)	15 µM (inactive)	14.9 µM (inactive)	4.8 µM (inactive)	5.14 µM (inactive)	12.6 µM (inactive)	12.6 µM (inactive)	2.69 µM (inactive)	11.4 µM (inactive)	5.21 µM (inactive)	8.93 µM (inactive)	11 µM (inactive)	–
COC(=O)C(/C(=N/NC(N)=O)C(=O)Nc1c(C)cccc1C(C)(C)C)c1nc2ccc(Cl)cc2nc1O (centres undefined)	> 100 µM (inactive)	75.5 µM (inactive)	> 100 µM (inactive)	37.5 µM (inactive)	> 100 µM (inactive)	> 100 µM (inactive)	> 100 µM (inactive)	> 100 µM (inactive)	> 100 µM (inactive)	> 100 µM (inactive)	> 100 µM (inactive)	> 100 µM (inactive)	> 100 µM (inactive)	> 100 µM (inactive)	> 100 µM (inactive)	> 100 µM (inactive)	> 100 µM (inactive)	> 100 µM (inactive)	> 100 µM (inactive)	–
N#Cc1cc(Sc2ccc(N)c(C#N)c2)ccc1N	–	16 µM (inactive)	17.6 µM (inactive)	–	9.64 µM (inactive)	12.8 µM (inactive)	15.3 µM (inactive)	26.9 µM (inactive)	–	65.6 µM (inactive)	15.5 µM (inactive)	17.6 µM (inactive)	30.3 µM (inactive)	20.4 µM (inactive)	15.8 µM (inactive)	11.9 µM (inactive)	13.3 µM (inactive)	11.1 µM (inactive)	14.8 µM (inactive)	13.3 µM (inactive)
N#CC(Cl)CS(=O)(=O)c1ccccc1 (centres undefined)	15.8 µM (inactive)	18.6 µM (inactive)	18.7 µM (inactive)	1.8 µM (inactive)	0.628 µM (active)	3.32 µM (inactive)	15.8 µM (inactive)	7.14 µM (inactive)	0.681 µM (active)	3.7 µM (inactive)	18.6 µM (inactive)	16.8 µM (inactive)	16.1 µM (inactive)	6.7 µM (inactive)	7.14 µM (inactive)	4.76 µM (inactive)	1.68 µM (inactive)	14.9 µM (inactive)	18.9 µM (inactive)	–
CS(=O)(=O)C1(Br)S(=O)(=O)OCCOS1(=O)=O	> 100 µM (inactive)	> 100 µM (inactive)	> 100 µM (inactive)	> 100 µM (inactive)	> 100 µM (inactive)	> 100 µM (inactive)	> 100 µM (inactive)	> 100 µM (inactive)	> 100 µM (inactive)	> 100 µM (inactive)	> 100 µM (inactive)	> 100 µM (inactive)	> 100 µM (inactive)	> 100 µM (inactive)	> 100 µM (inactive)	> 100 µM (inactive)	> 100 µM (inactive)	> 100 µM (inactive)	> 100 µM (inactive)	–
CSc1nc2nccnc2c(=O)[nH]1	> 100 µM (inactive)	> 100 µM (inactive)	> 100 µM (inactive)	> 100 µM (inactive)	> 100 µM (inactive)	> 100 µM (inactive)	> 100 µM (inactive)	> 100 µM (inactive)	> 100 µM (inactive)	> 100 µM (inactive)	> 100 µM (inactive)	> 100 µM (inactive)	> 100 µM (inactive)	> 100 µM (inactive)	> 100 µM (inactive)	> 100 µM (inactive)	> 100 µM (inactive)	–	> 100 µM (inactive)	–
CCOC(=O)C1=C(C)NC2=C(C(=O)N(c3ccccc3)C2c2ccccc2)C1c1ccccc1 (centres undefined)	17.7 µM (inactive)	17.9 µM (inactive)	> 10 µM (inactive)	16.9 µM (inactive)	21.2 µM (inactive)	17.1 µM (inactive)	15.1 µM (inactive)	18.2 µM (inactive)	12.6 µM (inactive)	18.9 µM (inactive)	–	18.9 µM (inactive)	17.4 µM (inactive)	20.1 µM (inactive)	18.1 µM (inactive)	16.7 µM (inactive)	19.8 µM (inactive)	17.8 µM (inactive)	–	–
COc1ccc(-c2oc(/C=N/c3ccccc3)c([N+](=O)[O-])c2-c2ccc(OC)c(OC)c2)cc1OC	> 100 µM (inactive)	–	> 100 µM (inactive)	> 100 µM (inactive)	–	> 100 µM (inactive)	> 100 µM (inactive)	> 100 µM (inactive)	> 100 µM (inactive)	> 100 µM (inactive)	> 100 µM (inactive)	> 100 µM (inactive)	–	> 100 µM (inactive)	> 100 µM (inactive)	> 100 µM (inactive)	> 100 µM (inactive)	> 100 µM (inactive)	> 100 µM (inactive)	–
COC(=O)C1Cc2c([nH]c3ccccc23)[C@H](CC(C)C)N1 (some centres undefined)	> 100 µM (inactive)	> 100 µM (inactive)	> 100 µM (inactive)	> 100 µM (inactive)	> 100 µM (inactive)	> 100 µM (inactive)	–	> 100 µM (inactive)	> 100 µM (inactive)	> 100 µM (inactive)	–	> 100 µM (inactive)	> 100 µM (inactive)	> 100 µM (inactive)	> 100 µM (inactive)	> 100 µM (inactive)	> 100 µM (inactive)	> 100 µM (inactive)	> 100 µM (inactive)	–
N#CC(C#N)=C(N)/C(C#N)=C\c1ccnc2ccccc12	37 µM (inactive)	–	28.2 µM (inactive)	16.4 µM (inactive)	3.21 µM (inactive)	–	14.6 µM (inactive)	24.3 µM (inactive)	30 µM (inactive)	35.2 µM (inactive)	39.3 µM (inactive)	18.9 µM (inactive)	–	17.3 µM (inactive)	–	23 µM (inactive)	3.49 µM (inactive)	15.1 µM (inactive)	31.8 µM (inactive)	–
C(=C\C(Sc1ccccc1)c1ccccc1)/NNC1=NN=C(c2ccccc2)C(c2ccccc2)N1 (centres undefined)	27.7 µM (inactive)	32.9 µM (inactive)	32.7 µM (inactive)	25.9 µM (inactive)	10.2 µM (inactive)	16.4 µM (inactive)	45.9 µM (inactive)	> 100 µM (inactive)	33.7 µM (inactive)	61.2 µM (inactive)	30.3 µM (inactive)	65.2 µM (inactive)	74 µM (inactive)	34.6 µM (inactive)	51.9 µM (inactive)	75 µM (inactive)	21.8 µM (inactive)	65.3 µM (inactive)	48.6 µM (inactive)	–
c1ccc(COc2ccc3[nH]c4c5c6ccccc6nc-5c[nH]c4c3c2)cc1	10.5 µM (inactive)	17.7 µM (inactive)	14.8 µM (inactive)	8.95 µM (inactive)	11.4 µM (inactive)	2.97 µM (inactive)	15.7 µM (inactive)	18 µM (inactive)	16.7 µM (inactive)	21.9 µM (inactive)	18.6 µM (inactive)	6.46 µM (inactive)	16.9 µM (inactive)	17.5 µM (inactive)	18.7 µM (inactive)	13.7 µM (inactive)	17.3 µM (inactive)	15.7 µM (inactive)	17.7 µM (inactive)	–
CC(=O)O[C@@]12CO[C@@H]1C[C@H](O)[C@@]1(C)C(=O)[C@H](O)C3=C(C)[C@@H](OC(=O)[C@H](O)[C@@H](NC(=O)OC(C)(C)C)c4ccccc4)C[C@@](O)([C@@H](OC(=O)c4ccccc4)[C@H]21)C3(C)C [DOCETAXEL]	< 0.01 µM (active)	3.72 µM (inactive)	0.0107 µM (active)	< 0.01 µM (active)	< 0.01 µM (active)	< 0.01 µM (active)	< 0.01 µM (active)	0.455 µM (active)	< 0.01 µM (active)	0.225 µM (active)	0.00291 µM (active)	< 0.01 µM (active)	–	< 0.01 µM (active)	< 0.0585 µM (active)	–	< 0.01 µM (active)	< 0.01 µM (active)	43.2 µM (inactive)	–
